Source: patent US20170296550A1, “ARYL SULTAM DERIVATIVES AS RORc MODULATORS” (Genentech, Inc., priority 2013, published 2017)

Target: T1, RORc (Homo sapiens, UniProt P51449)
T1 construct: host or cells: E. coli
T1 sequence (P51449 269-508 limits assumed): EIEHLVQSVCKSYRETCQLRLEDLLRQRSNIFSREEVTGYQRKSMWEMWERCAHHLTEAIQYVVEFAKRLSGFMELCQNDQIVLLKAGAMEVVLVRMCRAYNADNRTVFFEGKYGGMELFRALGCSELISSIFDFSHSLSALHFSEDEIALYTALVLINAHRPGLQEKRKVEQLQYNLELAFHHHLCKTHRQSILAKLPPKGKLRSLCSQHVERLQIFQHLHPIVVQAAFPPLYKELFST
Experiment: In Vitro RORc Ligand Binding Assay (25-[3H]hydroxycholesterol radioligand, filter plate)
Details: RORc ligand binding domain 0.6 ug/mL; 6 nM 25-[3H]hydroxycholesterol; 3 h at 25° C.
Procedure: Example 68 In Vitro RORc Ligand Binding Assay
This assay was used to determine a compound's potency in inhibiting activity of RORc by determining, Kiapp, IC50, or percent inhibition values.
On day of the assay, 100 uL of 0.05% CHAPS (in deionized H2O) was added to all wells of the GFB Unifilter plate and allowed soak for 1 h. A wash buffer of 50 mM HEPES (pH 7.4), 150 mM NaCl, and 5 mM MgCl2 was prepared to wash the filter plate. To prepare an assay buffer, BSA was added to the wash buffer to reach 0.01% and DTT was added to reach 1 mM.
For IC50 mode, 10 mM compound stocks were serially diluted in DMSO with DMSO to give 20× required final concentration in DMSO (15 uL compound+30 uL DMSO). The 20× compound stocks were diluted in DMSO with Assay Buffer 4-fold to reach 5× the final test concentration in 25% DMSO (10 uL compound+30 uL Assay Buffer). Solutions were mixed by aspiration several times with a pipette set on 50 uL volume. For the assay, 10 uL of 5× compound stock solutions in 25% DMSO were added to the assay plate in duplicate.
For two point screening, 10 mM stock compound solutions were diluted in DMSO to obtain 200 uM (20× the high test concentration) and then diluted 10-fold further to reach 20 uM (20× the low test concentration). The 20× stocks were diluted 4-fold with Assay Buffer (10 uL compound+30 uL Assay Buffer) to reach 5× the test concentrations (50 uM and 5 uM) and 10 uL were added to two assay plates for the duplicate wells. With each concentration tested on 2 plates, each set of 80 compounds used 4 assay plates (1 uM and 10 uM, with n=2).
25-hydroxycholesterol (1 uM) was used to determine the level of NSB signal is prepared in DMSO as for compounds above, then diluted in Assay Buffer to give a final concentration of 5 uM. For 25-hydroxycholesterol in 25% DMSO/75% Assay Buffer; 10 uL per well was used for NSB samples. Wells for Total Binding and No Receptor sample determination contained 10 uL of 25% DMSO/75% Assay Buffer per well.
Radioligand (25-[^3H]hydroxycholesterol) Preparation
25-[^3H]hydroxycholesterol was dilute in Assay Buffer to obtain 15 nM and vortex to mix. Add 20 uL to all wells to reach 6 nM final in the assay.
Stock receptor solution was diluted in assay buffer to obtain 1.5 ug/mL in Assay Buffer. 20 uL was added to all wells. For No R samples, 20 uL Assay Buffer was substituted for receptor solution.
Assay plates were 96-well polypropylene V-bottom plates. 10 uL of 5× compound in 25% DMSO/75% Assay Buffer was added to Test wells. 10 uL of 25% DMSO/75% Assay Buffer was added to Total Binding or No Receptor wells. 10 uL of 5 uM 25-hydroxycholesterol in 25% DMSO/75% Assay Buffer was added to NSB wells. 20 uL of 15 nM 25-[^3H]hydroxycholesterol prepared in Assay Buffer was added to all wells. 20 uL of 1.5 ug/mL RORc receptor was added to wells (or […] Assay Buffer to No R wells). Following addition to the wells, the plates were incubated 3 h at 25° C.
Using a Packard Filtermate Harvester, the filter plate were washed 4 times following transfer of the incubated samples. Plates were dry-filtered completely (2 h at 50° C. or overnight at room temperature). 50 uL Microscint 0 was added to all wells and read on Topcount protocol Inverted.
Final concentrations were as follows: 50 mM HEPES buffer (pH 7.4); 150 mM NaCl; 1 mM DTT; 5 mM MgCl2; 0.01% BSA; 5% DMSO; 0.6 ug/mL RORc receptor; 6 nM 25-[^3H]hydroxycholesterol. For NSB wells, 1 uM 25-hydroxycholesterol was also present.

CCS(=O)(=O)c1ccc(-c2ccc(CN3[C@@H](C)CCC(c4ccccc4)S3(=O)=O)c(F)c2)cc1 (stereo partly drawn) [Example 59, (3S)-2-(4′-Ethanesulfonyl-3-fluoro-biphenyl-4-ylmethyl)-3-methyl-6-phenyl-[1,2]thiazinane 1,1-dioxide]
IC50: 69 nM

Cc1noc(C)c1COc1ccc(CN2[C@@H](C)CCC(c3ccccc3)S2(=O)=O)cc1 (stereo partly drawn) [Example 60, (3S)-2-[4-(3,5-Dimethyl-isoxazol-4-ylmethoxy)-benzyl]-3-methyl-6-phenyl-[1,2]thiazinane 1,1-dioxide]
IC50: 151 nM
